Values quoted from earlier work in patent US20090247553A1, “Highly Pure Paliperidone or a Pharmaceutically Acceptable Salt Thereof Substantially Free of Keto Impurity” (ACTAVIS GROUP PTC EHF, priority 2008, published 2009).

Legend:
[1] = powder

solubility in 0.1N HCl (0.1N HCl): 2.3 g/100 ml
solubility in ethanol (ethanol): 0.076 g/100 ml
solubility in water (water): 0.003 g/100 ml
hygroscopicity [1]: non-hygroscopic
SMILES: Cc1nc2n(c(=O)c1CCN1CCC(c3noc4cc(F)ccc34)CC1)CCCC2O (racemic) [Paliperidone, (±)-3-[2-[4-(6-fluoro-1,2-benzisoxazol-3-yl)-1-piperidinyl]ethyl]-6,7,8,9-tetrahydro-9-hydroxy-2-methyl-4H-pyrido[1,2-a]pyrimidin-4-one]
